From patent US20130084267A1, “METHOD FOR STEM CELL DIFFERENTIATION” (THE UNIVERSITY OF QUEENSLAND, priority 2010, published 2013)

What was measured:
MR90 cells = assay: Flow cytometry analysis of EPCAM expression in SB431542-treated MR90; format: cell-based, human
Protocol: (a) the isotype Ab control. […] The EPCAM-(CD326-) cell population have been identified as the precursors of the mesodermal cell lineage. These cells can be further differentiated into mesenchymal stem cell lineage, like MSC. The iPSC MR90 cells were cultured in mTeSR and KOSR condition medium with SB431542 for 10 days, and then subcultured into MSC medium to differentiate cells into MSC. […] Analysis was performed by flow cytometry for EPCAM expression in the SB431542-treated MR90 cells after at 10 days in culture.

MEL1 = assay: qRT-PCR gene expression analysis of SB431542-treated MEL1; format: cell-based, human; details: MEL1, 10 μM SB431542, 10 days
Protocol: The pluripotent hESC line, MEL1, was cultured in KOSR medium with 10 μM SB431542 treatment. After 10 days treatment, MEL1 cells were subcultured in MSC medium for differentiating MSC cells. […] SB431542 treated cells and MEL1-MSC P2 were analyzed for gene expression. (a-d) OCT4, SOX2, MYST2 and EPCAM genes associated with iPSC pluripotency. (e-h) NCAM, MSX2, LEFTY1 and BMP4 genes expressed by cell lineages from the mesoderm. (i-j) PAX6 gene is expressed by cell lineages from the ectoderm and CDX2 gene is expressed by cell lineages from the trophectoderm. (k) GATA gene expressed by cell lineages from the endoderm. (l-o) Genes expressed by MSC (positive in CD29, CD73 and negative in the CD117, CD133). Gene expression was normalized to GAPDH. All experiments represent duplicates. […] (A, B) The heat map of mRNA expression level was assayed by qRT-PCR array. ESC/iPSC cells were cultured in KOSR condition medium with 10 μM SB431542. After 10 days treatment, cells were subcultured into MSC medium to differentiate cells into MSC. RNA was extracted from MEL1 and MR90 cells at day 10. […] (C) Relative mRNA transcripts folds change of quantitative RT-PCR analysis in the indicated cell subsets. All the gene expression level was normalized to GAPDH mRNA level and compared to genes level in the mTESR culture condition. […]

MR90 = assay: qRT-PCR gene expression analysis of SB431542-treated MR90; format: cell-based, human; details: MR90, 10 μM SB431542, 10 days
Protocol: Pluripotent iPSC, MR90, were cultured in KOSR medium with 10 μM SB431542 treatment for 10 days. After 10 days treatment, MR90 cells were subcultured in the MSC medium for differentiating MSC cells. […] MSC are indicated as MR90-MSC P0 (passage 0). The SB431542 treated cells and MR90-MSC P0 were analyzed for gene expression. (a-d) OCT4, SOX2, MYST2 and EPCAM genes associated with iPSC pluripotency. (e-h) NCAM, MSX2, LEFTY1 and BMP4 genes expressed by cell lineages from the mesoderm. (i-j) PAX6 gene is expressed by cell lineages from the ectoderm and CDX2 gene is expressed by cell lineages from the trophectoderm. (k) GATA gene expressed by cell lineages from the endoderm. (l-o) Genes expressed by MSC (positive in CD29, CD73 and negative in the CD117, CD133). Gene expression was normalized to GAPDH. All experiments represent duplicates.
(A, B) The heat map of mRNA expression level was assayed by qRT-PCR array. ESC/iPSC cells were cultured in KOSR condition medium with 10 μM SB431542. […] (C) Relative mRNA transcripts folds change of quantitative RT-PCR analysis in the indicated cell subsets. […]
Pluripotent iPSC (MR90) were cultured in mTESR medium and KOSR medium with 10 μM SB431542 for 10 days. […] After 10 days, SB431542-treated cells and MR90-MSC P0 cells were analyzed for gene expression (see FIG. 13). […]

hESC = assay: Morphology of hESC cultured in the presence of SB431542; format: cell-based, human; details: after 10 days incubation with SB431542
Text: (A) hESC remain as tightly packed colonies of small cells when cultured in normal growth conditions. […] (B) When these cells are transferred to MSC media, they again change morphology and become fibroblastic. (C) MSC also have a fibroblast-like morphology. (D) hiPSC line ES4CL1 also differentiates though an epithelial-like morphology into MSC-like cells with this SB431542 inhibitor culture method.
Day −4 to −1: hESC/iPSC were dissociated from mouse embryonic fibroblast (MEF) feeder layer and seeded on either un-coated flasks (i.e., which allow for adherence (attachment) of the pluripotent cells to the surface) or matrigel-coated flasks in mTESR (defined pluripotent stem cell media, Stem Cell Technologies; i.e. serum free, feeder layer free).
Day 1: when cell colonies were approximately 40% confluent, 10 uM SB431542 inhibitor (Sigma Aldrich) was added in DMEM:F12+20% knock out serum replacement (KOSR, Invitrogen) media.
Day 2-9: 20% KOSR+SB431542 inhibitor media replaced daily.
Day 7-10: when 90%+ cells have differentiated from hESC colonies to a monolayer with epithelial-like morphology, cells were passaged using TrypleSelect. Single cells were then seeded at 3×10^4-1.5×10^5 cells/cm^2 in fetal MSC medium (DMEM-HG+10% MSC qualified FBS), then passage when nearly confluent as for MSC.

iPSC = assay: Immunofluorescence marker analysis of iPSC differentiated in the presence of SB431542; format: cell-based, human
Text: Nuclei were counter-stained with dapi (blue). […] Nuclei were counter-stained with dapi (blue).

ALK-4, -5 and -7 = details: Inman et al. 2002; Laping et al. 2002; cited from earlier work
[1] = tested on: BMP signaling utilizing ALK-1, -2, -3, and -6; details: Inman et al. 2002; Laping et al. 2002; cited from earlier work
SMAD2/3 phosphorylation = details: Xu et al. 2008; cited from earlier work
[2] = compared with undifferentiated cells in mTeSR medium

## NC(=O)c1ccc(-c2nc(-c3ccc4c(c3)OCO4)c(-c3ccccn3)[nH]2)cc1 [SB431542, 4-[4-(1,3-benzodioxol-5-yl)-5-(2-pyridinyl)-1H-imidazol-2-yl]-benzamide]
MR90 cells; KOSR medium with SB431542, 10 days, decreased from 22.84%
  population of EPCAM+ MR90 cell: 5.94%
MR90 cells; MTESR medium with SB431542, 10 days, decreased from 45%
  population of EPCAM+ MR90 cell: 8.14%
MEL1
  differentiation into germ layer lineages (lineage gene expression): enhanced MEL1 differentiation into mesoderm (MSX1, MSX2, SOX9, NCAM1, BMP4), ectoderm (PAX6), trophectoderm (CDX2), endoderm (GATA4) and MSC cells (CD73, CD29)
MEL1; [2]
  relative mRNA levels of pluripotent genes (Pou5F (Oct4), SOX2, MYST2): decreased
MR90
  differentiation into germ layer lineages (lineage gene expression): induced MR90 differentiate into mesoderm (MSX1, MSX2, NCAM1, BMP4), ectoderm (PAX6) and trophectoderm (CDX2)
MR90; [2]
  relative mRNA levels of pluripotent genes (Pou5F (Oct4), SOX2, MYST2): decreased
hESC
  cell morphology: differentiated into an epithelial-like monolayer
iPSC
  expression of pluripotency markers (Oct4, Nanog, Stella, SSEA3, Tra 1-60 and Tra 1-81): decreased expression
ALK-4, -5 and -7
  inhibition of ALK-4, -5 and -7: selective and potent inhibitor
[1]
  effect on BMP signaling utilizing ALK-1, -2, -3, and -6: without affecting
SMAD2/3 phosphorylation
  effect on SMAD2/3 phosphorylation and NANOG promoter activity in hESC: inhibiting SMAD2/3 phosphorylation and subsequent decrease in NANOG promoter activity
